Here are results for 2 compounds from patent publication US6846640B2, “Time-resolved fluorescence assay for the detection of multimeric forms of A-beta 1-40” (Pharmacia & Upjohn Company, priority 2002, dated 2005).

For one assay, the target named is β amyloid (Homo sapiens, UniProt P05067). Briefly: β-amyloid aggregation ELISA protocol (Howlett et al.). The format is biochemical. To be noted: Aβ incubated overnight, 6E10 antibody. On the procedure: For the β-amyloid aggregation ELISA protocol (Howlett et al., supra), 96 uL diluted β amyloid solution (51 μg/ml) is added to a 96-well polystyrene plate in the presence of and absence of 2 μL of an aggregation inhibitor test compound diluted in DMSO. The Aβ is incubated overnight to allow for aggregation and an aliquot transferred to another 96-well polystyrene plate, precoated with anti-Aβ antibody (6E10, Senetek, Napa, Calif.) overnight, washed, and blocked with Dulbecco's PBS/1% BSA solution. […] The secondary, biotinylated antibody was bound with 200 μL Eu^3+-streptavidin (100 ng/ml) in DELFIA assay buffer, the excess washed off, and the plate developed in DELFIA enhancement solution and read on a TRF plate reader as outlined above.
Sequence of β amyloid (P05067 672-711 limits assumed): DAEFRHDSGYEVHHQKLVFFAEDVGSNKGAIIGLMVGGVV
(An ELISA detects its analyte on a solid surface through an enzyme-linked reagent.)

A further assay concerns the target T1, β-amyloid 1-40 (Homo sapiens, UniProt P05067).
T1 construct: Beta-amyloid 1-40 (Aβ) and biotin-labeled β-amyloid 1-40 peptides were purchased from Biosource; purchased Biosource (Camarillo, Calif.)
The assay is described as follows: TRF aggregation assay for β-amyloid polypeptide aggregation. It counts as biochemical. The note with it: 50 ug/ml β-amyloid, 24 uM test compound, 2% DMSO, 37° C. for 24 hrs.

T1 sequence (P05067 672-711 limits assumed): as above
Protocol for β-amyloid 1-40: Beta-amyloid 1-40 (Aβ) and biotin-labeled β-amyloid 1-40 peptides were purchased from Biosource (Camarillo, Calif.). β-amyloid and biotinylated amyloid stock solutions, diluted in 0.1% acetic acid and corrected for 80% peptide content, were diluted to 83 μg/ml and 42 μg/ml, respectively, in reaction buffer (Dulbecco's PBS pH 7.4, 0.02% Tween 20). An equal mixture of the two β-amyloid products was then brought to a final concentration of 62.5 μg/ml total β-amyloid, giving a final 2:1 ratio of unbiotinylated to biotinylated Aβ polypeptide. When analyzing aggregation in the presence of test compound, 5 ul of diluted test compound (120 uM in 10% DMSO) was added to each well being analyzed in a 384-well polystyrene plate (Nunc). Test compounds are added over a range of concentrations. Twenty microliters of the β-amyloid reaction mixture was dispensed into each well of the 384 well plate, giving the final assay conditions as 24 uM test compound, 2% DMSO, and 50 ug/ml β-amyloid in a final volume of 25 uL. Plates were then sealed with foil sealers (Corning), and incubated at 37° C. for 24 hrs. […] Plates were washed with reaction buffer and 75 uL of DELFIA Enhancement solution (Wallac) was added to each well and the plates read on TRF capable plate reader (excitation at 337 run and emission at 620 nm).

In the case of `CO[C@H]1/C=C/O[C@@]2(C)Oc3c(C)c(O)c4c(O)c(c(/C=N/N5CCN(C)CC5)c(O)c4c3C2=O)NC(=O)/C(C)=C\C=C\[C@H](C)[C@H](O)[C@@H](C)[C@@H](O)[C@@H](C)[C@H](OC(C)=O)[C@@H]1C` [rifampicin], the “inhibition of Aβ aggregation” value against β amyloid is around 30%.

Turning to QKLVFF [QKLVFF peptide], in the assay with β-amyloid 1-40, the “prevents Aβ aggregation” value amounted to 44%.
